Each structure is given as a SMILES string. In brackets after ≈: the same amount, converted by molar mass.

Data on four compounds can be found in DBAASP.

Common to all, as to assay: ≥ marks a high value that may be exact or a test limit, other limits are often not marked, values filed in µg/mL are converted to µM
Assay [1] has as its system Pluralibacter gergoviae MTCC 3826.
For assay [2], the system named is Corynebacterium glutamicum MTCC 2679.
Assay [3] deals with Bordetella bronchiseptica MTCC 6837.
Assay [4] concerns Alcaligenes faecalis MTCC 1937.
For assay [5], the system named is Citrobacter koseri MTCC 1657.
In assay [6] the test system is Enterococcus faecalis MTCC 439.
Assay [7] concerns Citrobacter freundii MTCC 1658.
Assay [8] has as its system Klebsiella oxytoca MTCC 2275.
Assay [9] concerns Alkalihalobacillus alcalophilus MTCC 860.
Assay [10] relates to Staphylococcus aureus MTCC 3160.
Assay [11] concerns Stenotrophomonas maltophilia MTCC 1890.
Assay [12] relates to Salmonella enterica subsp. enterica serovar Typhimurium ATCC 14028.
Assay [13] has as its system Klebsiella aerogenes MTCC 111.
For assay [14], the system named is Haemophilus influenzae MTCC 621.
In assay [15] the test system is Proteus vulgaris MTCC 1771.
Assay [16] concerns Salmonella enterica MTCC 9844.
Assay [17] deals with Acinetobacter baumannii MTCC 9829.
The subject of assay [18] is Pseudomonas aeruginosa MTCC 3542.
For assay [19], the system named is Klebsiella pneumoniae MTCC 7407.
Assay [20] relates to Shigella boydii MTCC 11947.
The subject of assay [21] is Staphylococcus haemolyticus MTCC 3383.
In assay [22] the test system is Proteus mirabilis MTCC 3158.
Assay [23] deals with Shigella flexneri MTCC 1457.
Assay [24] has as its system Vibrio cholerae MTCC 3904.
In assay [25] the test system is Escherichia coli K12 MG1655.
The test system of assay [26] is Staphylococcus aureus ATCC 25923.
In the next assay the test system is Escherichia coli UB1005.
Assay [27] relates to Pseudomonas aeruginosa K799.
Assay [28] relates to Staphylococcus epidermidis.
For a further assay, the system named is Listeria monocytogenes.
Assay [29] has as its system Enterococcus faecalis ATCC 29212.
Assay [30] deals with Salmonella enterica subsp. enterica serovar Typhimurium ATCC 14028s.
For assay [31], the system named is Pseudomonas aeruginosa PAO1.
Assay [32] has as its system Bacillus cereus ATCC 14579.
Assay [33] deals with Bacillus amyloliquefaciens ATCC 23842.
The subject of assay [34] is Proteus mirabilis ATCC 35659.
Assay [35] deals with Bacillus licheniformis ATCC 14580.
Assay [36] has as its system Enterococcus faecalis 1F-1.
Assay [37] concerns Enterococcus faecium 5F-10.
Assay [38] relates to Salmonella enterica ATCC H9812.
Assay [39] deals with Bacillus subtilis ATCC 6051.
Assay [40] concerns Escherichia coli ATCC 25922.
Assay [41] concerns Staphylococcus aureus ATCC 29213.

`CC(C)C[C@H](NC(=O)[C@H](Cc1cnc[nH]1)NC(=O)[C@H](CC(N)=O)NC(=O)[C@H](Cc1c[nH]c2ccccc12)NC(=O)[C@H](CC(=O)O)NC(=O)[C@@H](N)CCC(=O)O)C(=O)NCC(=O)N[C@@H](C)C(=O)N[C@@H](C)C(=O)N[C@H](C(=O)N[C@@H](Cc1cnc[nH]1)C(=O)N[C@H](C(=O)N[C@@H](CC(C)C)C(=O)N[C@@H](CCCCN)C(=O)N[C@@H](Cc1cnc[nH]1)C(=O)N[C@H](C(=O)N[C@@H](Cc1ccc(O)cc1)C(=O)N[C@@H](CCCCN)C(=O)O)C(C)C)[C@@H](C)O)C(C)C` [EDWNHLGAAVHTLKHVYK]: the MIC in assay [1], in assay [2], in assay [3], in assay [4], in assay [5] and in assay [6] was no less than 60.4 µM throughout. In addition, the MIC in assay [7] is no less than 60.4 µM; in assay [8], no less than 60.4 µM; in assay [9] it was no less than 60.4 µM; in assay [10] it was no less than 60.4 µM; in assay [11], no less than 60.4 µM; in assay [12] it was greater than 60.4 µM. Moreover, the MIC in [13], in [14], in assay [15], in [16], in [17] and in [18] was no less than 60.4 µM in each case. Moreover, the MIC in assay [19], in [20], in [21], in assay [22], in assay [23] and in assay [24] was no less than 60.4 µM in each case. The same compound had an MIC in [25] of no less than 60.4 µM.
As to `CC(C)C[C@H](NC(=O)[C@H](Cc1cnc[nH]1)NC(=O)[C@H](CCCN=C(N)N)NC(=O)[C@H](C)NC(=O)[C@H](CCCN=C(N)N)NC(=O)[C@H](Cc1cnc[nH]1)NC(=O)[C@H](C)NC(=O)[C@@H](NC(=O)[C@H](Cc1cnc[nH]1)NC(=O)[C@H](CCCCN)NC(=O)[C@H](CC(C)C)NC(=O)[C@H](CO)NC(=O)[C@H](C)NC(=O)[C@H](CO)NC(=O)[C@H](CC(C)C)NC(=O)[C@@H](N)CCCCN)C(C)C)C(=O)N[C@@H](CO)C(=O)O` [KLSASLKHVAHRARHLS], the MIC in assay [1], in [2], in assay [3], in assay [4], in assay [5] and in assay [6] was no less than 67 µM each time. The MIC in assay [7] was no less than 67 µM; in [8] it was no less than 67 µM; in [9], no less than 67 µM; in assay [10] it was no less than 67 µM; in [11], no less than 67 µM; in assay [12] it was greater than 67 µM. Besides, the MIC in assay [13], in assay [14], in [15], in assay [16], in assay [17] and in assay [18] was no less than 67 µM in each case. In addition, the MIC in [19], in [20], in assay [21], in [22], in [23] and in [24] was no less than 67 µM throughout. The same compound displayed an MIC in assay [25] of no less than 67 µM.
For the compound `CC[C@H](C)[C@H](NC(=O)[C@H](CCCN=C(N)N)NC(=O)[C@H](CS)NC(=O)[C@H](CC(C)C)NC(=O)[C@H](CCCN=C(N)N)NC(=O)[C@@H](N)CCCN=C(N)N)C(=O)N[C@H](C(=O)N[C@H](C(=O)N[C@H](C(=O)N[C@@H](CCCN=C(N)N)C(=O)N[C@H](C(=O)N[C@@H](CS)C(=O)N[C@@H](CCCN=C(N)N)C(=O)N[C@@H](CCCN=C(N)N)C(=O)O)C(C)C)[C@@H](C)CC)C(C)C)C(C)C` [RRLCRIVVIRVCRR], the MIC in assay [26] was greater than 35.6 µM; against Escherichia coli UB1005, 2.22 µM (≈ 4 µg/mL); in assay [27], 8.9 µM (≈ 16 µg/mL); in assay [28], 2.22 µM (≈ 4 µg/mL); against Listeria monocytogenes it was 0.278 µM (≈ 0.5 µg/mL); in assay [29] it was 2.22 µM (≈ 4 µg/mL). In assay [30], this compound showed an MIC of 17.8 µM (≈ 32 µg/mL).
Consider `CC(C)C[C@H](NC(=O)[C@H](CC(C)C)NC(=O)[C@H](CCC(=O)O)NC(=O)[C@H](CC(=O)O)NC(=O)[C@@H](NC(=O)[C@@H](N)CCCN=C(N)N)C(C)C)C(=O)N[C@@H](CO)C(=O)O` [RVDELLS], for which the MIC in assay [31] is greater than 154 µM; in [32], no less than 154 µM; in assay [33], no less than 154 µM; in [34], no less than 154 µM; in [35], no less than 154 µM; in assay [36] it was no less than 154 µM. In addition, the MIC in [37] was no less than 154 µM; in assay [38] it was no less than 154 µM; in assay [39], no less than 154 µM; in assay [40], greater than 154 µM; in [41], greater than 154 µM.
